A short description of data set [1]: permeation of the blood-brain barrier.
The next data set relates to normal bone marrow cells. Briefly: inhibition of proliferation of normal bone marrow cells. It is filed as cell-based. As to conditions: specificity.
The test system of another data set is leukemia cells. The data set is described as follows: inhibition of proliferation of leukemia cells. In kind it is cell-based. As to conditions: cells associated with a cell proliferation condition.

The values that follow come from patent publication US20080318939A1, “METHODS FOR TREATING OPHTHALMIC DISORDERS” (priority 2007, published 2008).

Each structure is given as a SMILES string.

Take `CC(=O)N1CCN(c2nc3c(cc2F)c(=O)c(C(=O)NCCN2CCCC2)c2n(C)c4ccccc4n32)CC1` [TA4-1 A]: the blood-brain barrier permeation entry in data set [1] was “significantly permeates the blood-brain barrier”. In the case of `CN1CCCC1CCNC(=O)c1cn2c3c(c(N4CCC(c5cnccn5)C4)c(F)cc3c1=O)Oc1cc3ccccc3cc1-2` (stereo not drawn) [TA1-1A], in the data set on normal bone marrow cells, the “inhibition of normal bone marrow cells” value is “without inhibiting normal bone marrow cells”. Also, in the data set with leukemia cells, the “inhibition of leukemia cells” value is listed as “inhibits leukemia cells”.
